Results: patent publication US20230144023A1, “USE OF BUTYLPHTHALIDE AND DERIVATIVE THEREOF” (CSPC NBP PHARMACEUTICAL CO., LTD, priority 2020, published 2023)
Read-outs that look alike come from different tables or passages of the source.

Tests used:
[1] = tested on: A549; assay: In vitro tumor cell proliferation, MTT (Example 7); settings: Homo sapiens, A549, 72 h
[2] = PK of total paclitaxel in plasma, B16/F10 tumor-bearing mice (Example 3); assay type: in vivo, C57BL/6N mice; settings: NBP 3, 10, 30 mg/kg bid i.p. with ab-PTX 25 mg/kg; Cmax, AUC0-t and other indexes
Description: Administration volume: 10 mL/kg. […] The administration was performed for 15 consecutive days. The administration volume was 10 mL/kg. Before the administration of the last dose of ab-PTX (0 h), and 5 min, 0.5 […] after the administration, blood was sampled (as detailed in Table 5), anticoagulated with heparin, and centrifuged to separate plasma, which was stored at -80° C. for later use. The total amount of paclitaxel in the plasma was determined by protein precipitation-LC/MS/MS.

[3] = tested on: MM.1S; assay: In vitro tumor cell proliferation, MTT (Example 7); settings: Homo sapiens, MM1.S, 72 h
[4] = tested on: JIMT-1 xenograft tumor; assay: Influence of NBP on antitumor efficacy of ab-PTX against JIMT-1 xenograft tumor (Example 4); assay type: in vivo, Nu/Nu mice
Description: After in vitro resuscitation and passage of JIMT-1 cells to a sufficient amount, the cells were counted by a microscope, and diluted with a serum-free medium to adjust the cell count to about 1×10^8 cells/mL. The cell suspension was kept in an ice-water bath. […] Monotherapy group of ab-PTX: intravenous injection of ab-PTX at 15 mg/kg once every week, qw (on days 0, 7, 14, 21, and 28). Administration period: 28 days. Administration volume: 10 mL/kg. Monotherapy group of NBP: […] The administration volume was 10 mL/kg. […] The administration period was 28 days. The administration volume was 10 mL/kg. The solvent group was given normal saline at the same frequency and with the same method as ab-PTX, and was given vegetable oil at the same frequency and with the same method as NBP. […] Animals were weighed at set time once per day after the commencement of administration. At the end of the experiment, after the animals were euthanized by CO2 asphyxiation, the tumors were excised and weighed.

[5] = tested on: paclitaxel (albumin bound) chemotherapy-induced peripheral neuropathy; assay: Paclitaxel (albumin bound) chemotherapy-induced peripheral neuropathy in rats, butylphthalide intraperitoneal injection (Example 1); assay type: in vivo, SD (Sprague Dawley) rats; settings: NBP 1.5, 5 and 15 mg/kg bid i.p., compared with the model group
Description: The normal group was administered with 0.9% normal saline (0.9% INJ NS) at the same frequency. The animal grouping, the administration method, and the doses are detailed in Table 3. Based on the thermal pain threshold baselines and the body weights of the rats, the rats with the baseline values ranging from 3 to 6 s were selected, and were equally grouped in accordance with the above Table 3. […] (2) Thermal pain threshold: IITC Life Science Electronic Von Frey Anesthesio meter was used and the intensity of the light source was adjusted to obtain a baseline of thermal pain threshold of about 3-6 s. […] The rats were placed in a plastic compartment on a glass plate, to make the planta centers of the rats be exposed to the light source.

[6] = PK of Bortezomib and butylphthalide in plasma of MM.1S tumor-bearing mice (Example 8); assay type: in vivo, Nu/Nu mice
Description: Monotherapy group of Bortezomib: administered by intraperitoneal injection at 0.5 mg/kg, biw (on days 0, 3, 7, 10, and 15);
Monotherapy group of NBP: administered by transoral gavage at 60 mg/kg, bid (the administration was commenced on day 0), and the second dose of NBP was administered with an interval from the first dose of ≥4 h;
Monotherapy group of Palbociclib: intragastric administration at 70 mg/kg, qd (the administration was commenced on day 0);
Combined therapy group of NBP/Bortezomib: the administration frequency and dose were the same as the frequency and dose of the monotherapy group of NBP and the monotherapy group of Bortezomib, respectively.
Combined therapy group of Bortezomib/Palbociclib: the administration frequency and dose were the same as the frequency and dose of the monotherapy group of Bortezomib and the monotherapy group of Palbociclib, respectively.
Combined therapy group of NBP/Bortezomib/Palbociclib: the administration frequency and dose were the same as the frequency and dose of the monotherapy group of NBP, the monotherapy group of Bortezomib, and the monotherapy group of Palbociclib, respectively.
Before administration of the last dose of Bortezomib (0 h), and 5 min, 15 min, 30 min, 1 h, 2 h, 4 h, 8 h, 24 h after the administration, blood was sampled (as detailed in Table 8) (except that blood was sampled from the mice in the solvent group only at 0 h), anticoagulated with heparin, and centrifuged to separate plasma, which was stored at −80° C. for later use. Bortezomib and butyphthalide in the plasma were determined by protein precipitation-LC/MS/MS.

[7] = read-out: Inhibition rate, First dose
[8] = read-out: Inhibition rate, Mean ± SD
[9] = read-out: Inhibition rate, Second dose
[10] = read-out: Inhibition rate, Third dose
[11] = NBP 60 mg/kg gavage, Bor 0.5 mg/kg, Pal 70 mg/kg, mean ± SD, n=6

influence of NBP on the PK behavior of ab-PTX in mice [2]: did not affect | influence of NBP on the in vivo pharmacokinetic behaviors of monotherapy of Bortezomib and combined therapy of Bortezomib/Palbociclib ([6]; NBP 60 mg/kg bid): did not have obvious influence | CI of NBP [6, 11]: 2880 ± 1730 mL/min/kg | Vd of NBP [6, 11]: 1445 ± 298 L/kg | AUC(0-t) ([6]; Nu/Nu, mouse, plasma, po, NBP 60 mg/kg gavage, Bor 0.5 mg/kg, Pal 70 mg/kg, mean ± SD, n=6, read-out: AUC0-t of NBP in plasma): 236 ± 100 ng·h/mL | Cmax ([6]; Nu/Nu, mouse, plasma, po, NBP 60 mg/kg gavage, Bor 0.5 mg/kg, Pal 70 mg/kg, mean ± SD, n=6, read-out: Cmax of NBP in plasma): 117 ± 88 ng/mL | MRT last ([6]; Nu/Nu, mouse, plasma, po, NBP 60 mg/kg gavage, Bor 0.5 mg/kg, Pal 70 mg/kg, mean ± SD, n=6, read-out: MRT0-t of NBP): 3.1 ± 0.6 h | half-life ([6]; Nu/Nu, mouse, plasma, po, NBP 60 mg/kg gavage, Bor 0.5 mg/kg, Pal 70 mg/kg, mean ± SD, n=6, read-out: t1/2 of NBP in plasma (converted)): 10.1 ± 9.7 h
SMILES: CCCCC1OC(=O)c2ccccc21 (stereo not shown) [NBP, 3-n-butylphthalide]
inhibition at 30 µM [1, 7]: -11.1% | inhibition at 30 µM [1, 8]: 1.11 ± 10.8% | inhibition at 30 µM [1, 9]: 9.68% | inhibition at 30 µM [1, 10]: 4.74% | inhibition at 30 µM [3, 7]: 0.16% | inhibition at 30 µM [3, 8]: 12.1 ± 11.1% | inhibition at 30 µM [3, 9]: 14.1% | inhibition at 30 µM [3, 10]: 22.1% | Inhibition rate (tumor weight) ([4]; NBP 60 mg/kg bid gavage alone): 4.0% | Tumor weight ([4]; NBP 60 mg/kg bid gavage alone, mean ± SD, n=8): 0.9570 ± 0.2529 g | tumor growth ([4]; ab-PTX 15 mg/kg qw i.v., NBP 60 mg/kg bid gavage, compared with the solvent group): not obviously affected | body weights of the mice ([4]; ab-PTX 15 mg/kg qw i.v., NBP 6, 20, 60 mg/kg bid gavage, 28 days): no significant difference | body weights of the rats ([5]; D4-16): not significantly changed | thermal pain threshold (increase in model rats) ([5]; D7-13, P<0.05 or P<0.01): significantly decreased
